The source of these data is ChEMBL document CHEMBL1141287, “Cardenolides from Saussurea stella with cytotoxicity toward cancer cells” (J Nat Prod, 2007).

In general, IC50 refers to the point on the concentration scale where inhibition reaches its midpoint. A higher IC50 goes with lower potency.

Assay [1] is described as follows: Cytotoxicity against human BCG823 cells after 48 hrs by sulforhodamine B assay. The format is functional, cell-based. Conditions: BCG823, 48 h. For orientation: In SRB staining, fixed cells bind dye roughly in proportion to their protein.
The test system of assay [2] is Bel-7402. Put plainly: Cytotoxicity against human Bel7402 cells after 48 hrs by sulforhodamine B assay. The format is functional, cell-based. Conditions: Bel-7402, 48 h.

For the compound `C[C@@H]1O[C@@H](O[C@H]2CC[C@@]3(C=O)[C@H](CC[C@@H]4[C@@H]3CC[C@]3(C)[C@@H](C5=CC(=O)OC5)CC[C@]43O)C2)[C@H](O)[C@H](O)[C@H]1O[C@@H]1O[C@H](CO)[C@@H](O)[C@H](O)[C@H]1O`, the IC50 in assay [1] was 290 nM; in assay [2] it was 870 nM.

In the case of `C[C@H]1O[C@@H](O[C@H]2CC[C@]3(C=O)[C@H]4CC[C@]5(C)[C@@H](C6=CC(=O)OC6)CC[C@]5(O)[C@@H]4CC[C@]3(O)C2)[C@H](O)[C@@H](O)[C@@H]1O`, the IC50 in assay [1] worked out at 100 nM; in assay [2], 20 nM.

Take `C[C@]12CC[C@H](O[C@@H]3OC[C@@H](O)[C@H](O)[C@H]3O)C[C@@]1(O)CC[C@@H]1[C@@H]2CC[C@]2(C)[C@@H](C3=CC(=O)OC3)CC[C@]12O`: the IC50 in assay [1] was 230 nM; in assay [2], 480 nM.

For `C[C@]12CC[C@H]3[C@@H](CC[C@]4(O)C[C@@H](O[C@@H]5OC[C@@H](O)[C@H](O)[C@H]5O)CC[C@]34C=O)[C@@]1(O)CC[C@@H]2C1=CC(=O)OC1`, the half-maximal inhibitory concentration (IC50) in assay [1] stood at 16 nM; in assay [2] it was 130 nM.

Take `C[C@H]1O[C@@H](O[C@H]2CC[C@]3(C)[C@H]4CC[C@]5(C)[C@@H](C6=CC(=O)OC6)CC[C@]5(O)[C@@H]4CC[C@]3(O)C2)[C@H](O)[C@@H](O)[C@@H]1O`: the half-inhibitory concentration (IC50) was 70 nM in assay [1] and 310 nM in assay [2].

Regarding `C[C@@H]1O[C@@H](O[C@H]2CC[C@]3(C=O)[C@H]4CC[C@]5(C)[C@@H](C6=CC(=O)OC6)CC[C@]5(O)[C@@H]4CC[C@]3(O)C2)[C@H](O)[C@H](O)[C@H]1O` [CONVALLATOXIN], the IC50 in assay [1] turned out to be 16 nM; in assay [2], 50 nM.

As to `C[C@@H]1O[C@@H](O[C@H]2CC[C@@]3(CO)[C@H](CC[C@@H]4[C@@H]3CC[C@]3(C)[C@@H](C5=CC(=O)OC5)CC[C@]43O)C2)[C@H](O)[C@H](O)[C@H]1O`, the IC50 in assay [1] is 77 nM; in assay [2] it was 28 nM.

For `C[C@H]1O[C@@H](O[C@H]2CC[C@]3(C)[C@H]4CC[C@]5(C)[C@@H](C6=CC(=O)OC6)CC[C@]5(O)[C@@H]4CC[C@]3(O)C2)[C@H](O)[C@@H](O)[C@H]1O`, the IC50 in assay [1] was 120 nM; in assay [2] it was 400 nM.

For the compound `C[C@@H]1O[C@@H](O[C@@H]2C[C@H]3CC[C@@H]4[C@H](CC[C@]5(C)[C@@H](C6=CC(=O)OC6)CC[C@]45O)[C@@]3(C)[C@H](O)C2)[C@H](O)[C@H](O)[C@H]1O`, the values for the 50% inhibitory concentration (IC50) in assay [1] and in assay [2] were 56 nM and 240 nM, respectively.
